{
  "source": "patent US10779550B2",
  "about": "“Human milk oligosaccharides to ameliorate symptoms of stress” (ABBOTT LABORATORIES, priority 2012, dated 2020)",
  "key": {"[1]": {"system": "fecal samples taken from formula-fed infants (FF) (intestinal flora)", "test": "Anaerobic fermentation of HMOs with fecal inocula from formula-fed infants; GABA and agmatine in supernatant by GC/MS and LC/MS/MS", "format": "cell-based, human", "conditions": "for GABA, ratio HMO/blank / agmatine, ratio HMO/blank: formula fed infants, fermentation 37° C.; for GABA and agmatine relative to a blank (in words): formula-fed infants (FF) fecal fermentation cultures", "procedure": "(§1) Fecal samples from eight human babies, one group of four breast-fed and the other group of four formula-fed, were used as inocula for anaerobic fermentation (37° C.) of lacto-N-neotetraose (LNnT) and 6′-sialyllactose. Supernatants from the fermentation cultures were sampled at 0 hr, 3 hr, and 6 hr. A culture without addition of HMOs served as a control. A sample of the fermentation medium (blank), which constituted approximately 90% of the starting culture volume, was also analyzed.\n(§2) Samples were extracted and split into equal parts for analysis on GC/MS and LC/MS/MS platforms. GABA and agmatine ions were identified in chromatograms, and peak area was integrated for quantitative analysis."}, "[2]": {"system": "fecal samples taken from breast-fed infants (BF) (intestinal flora)", "test": "Anaerobic fermentation of HMOs with fecal inocula from breast-fed infants; GABA and agmatine in supernatant by GC/MS and LC/MS/MS", "format": "cell-based, human", "conditions": "for GABA, ratio HMO/blank / agmatine, ratio HMO/blank: breast fed infants, fermentation 37° C.; for GABA and agmatine relative to a blank (in words): breast-fed infants (BF) fecal fermentation cultures", "procedure": "as §1, §2"}},
  "note": "Marks after values point to notes of the source that are not given here.",
  "data": [
    {"smiles": "CC(=O)N[C@H]1[C@H](O[C@H]2[C@@H](O)[C@@H](CO)O[C@@H](O[C@H]3[C@H](O)[C@@H](O)C(O)O[C@@H]3CO)[C@@H]2O)O[C@H](CO)[C@@H](O[C@@H]2O[C@H](CO)[C@H](O)[C@H](O)[C@H]2O)[C@@H]1O", "note": "(mixture of isomers) [LNnT, lacto-N-neotetraose]", "values": [
      {"measurement": "GABA, ratio HMO/blank", "setting": "[1]; 0 h", "value": 3.25},
      {"measurement": "agmatine, ratio HMO/blank", "setting": "[1]; 0 h", "value": 2.12},
      {"measurement": "GABA, ratio HMO/blank", "setting": "[1]; 3 h", "value": "27.83^a"},
      {"measurement": "agmatine, ratio HMO/blank", "setting": "[1]; 3 h", "value": "61.77^a"},
      {"measurement": "GABA, ratio HMO/blank", "setting": "[1]; 6 h", "value": "33.42^a"},
      {"measurement": "agmatine, ratio HMO/blank", "setting": "[1]; 6 h", "value": "75.02^a"},
      {"measurement": "GABA and agmatine relative to a blank (in words)", "setting": "[1]", "value": "dramatic increases"},
      {"measurement": "GABA, ratio HMO/blank", "setting": "[2]; 0 h", "value": 3.66},
      {"measurement": "agmatine, ratio HMO/blank", "setting": "[2]; 0 h", "value": "9.52^a"},
      {"measurement": "GABA, ratio HMO/blank", "setting": "[2]; 3 h", "value": 14.78},
      {"measurement": "agmatine, ratio HMO/blank", "setting": "[2]; 3 h", "value": 34.4},
      {"measurement": "GABA, ratio HMO/blank", "setting": "[2]; 6 h", "value": "17.46^a"},
      {"measurement": "agmatine, ratio HMO/blank", "setting": "[2]; 6 h", "value": 1.59},
      {"measurement": "GABA and agmatine relative to a blank (in words)", "setting": "[2]", "value": "dramatic increases"}
    ]},
    {"smiles": "CC(=O)N[C@H]1[C@H]([C@H](O)[C@H](O)CO)O[C@@](OC[C@H]2O[C@@H](O[C@H]3[C@H](O)[C@@H](O)[C@H](O)O[C@@H]3CO)[C@H](O)[C@@H](O)[C@H]2O)(C(=O)O)C[C@@H]1O", "note": "[6′SL, 6′-sialyllactose]", "values": [
      {"measurement": "GABA, ratio HMO/blank", "setting": "[1]; 0 h", "value": 0.6},
      {"measurement": "agmatine, ratio HMO/blank", "setting": "[1]; 0 h", "value": 1.4},
      {"measurement": "GABA, ratio HMO/blank", "setting": "[1]; 3 h", "value": 4.31},
      {"measurement": "agmatine, ratio HMO/blank", "setting": "[1]; 3 h", "value": 11.99},
      {"measurement": "GABA, ratio HMO/blank", "setting": "[1]; 6 h", "value": "16.99^a"},
      {"measurement": "agmatine, ratio HMO/blank", "setting": "[1]; 6 h", "value": 3.76},
      {"measurement": "GABA and agmatine relative to a blank (in words)", "setting": "[1]", "value": "dramatic increases"},
      {"measurement": "GABA, ratio HMO/blank", "setting": "[2]; 0 h", "value": 1.22},
      {"measurement": "agmatine, ratio HMO/blank", "setting": "[2]; 0 h", "value": "8.23^a"},
      {"measurement": "GABA, ratio HMO/blank", "setting": "[2]; 3 h", "value": 3.53},
      {"measurement": "agmatine, ratio HMO/blank", "setting": "[2]; 3 h", "value": 10.51},
      {"measurement": "GABA, ratio HMO/blank", "setting": "[2]; 6 h", "value": 5.32},
      {"measurement": "agmatine, ratio HMO/blank", "setting": "[2]; 6 h", "value": 3.43},
      {"measurement": "GABA and agmatine relative to a blank (in words)", "setting": "[2]", "value": "dramatic increases"}
    ]}
  ]
}
